Earlier results on 4 sequences are cited in US20260124292A1, “MU[…] INFLUENZA VACCINE” (priority 2022, published 2026).

This data set concerns influenza A virus-specific CTL. To be noted: according to Boon et al. 2006.
“ELRSRYWAI (listed as Alphainfluenzavirus influenzae) [SEQ ID NO: 2]”: the Immunodominance result is “(Intermediate”. Turning to “SRYWAIRTR (listed as Alphainfluenzavirus influenzae) [SEQ ID NO: 3]”, the Immunodominance entry is on record as “(Highly”. On to CTELKLSDY [SEQ ID NO: 4], for which the Immunodominance result was “(Intermediate”.

For “RRSGAAGAAVK (listed as Alphainfluenzavirus influenzae) [SEQ ID NO: 16]”, the Immunodominance result is “(Highly”.
